{"source": "patent US20120114823A1", "about": "“Feed Additive For Improved Pigment Retention” (TROUW INTERNATIONAL B.V., priority 2009, published 2012)", "key": {"rainbow trout [1]": {"test_system": "rainbow trout", "settings": "rainbow trout fed two months; feed with 80 ppm astaxanthin, alone or with 160 ppm proantocyanidin (0.1% KPA-F); cited from earlier work"}, "rainbow trout [2]": {"test_system": "rainbow trout", "settings": "oral via feed; cited from earlier work"}, "salmon (S. salar) [3]": {"test_system": "salmon (S. salar)", "experiment": "Feeding test with ferulic acid in astaxanthin feed, retention of astaxanthin in fish muscle (Example 2)", "assay_type": "in vivo, Salmo salar", "method": "The test was carried out with salmon (S. salar) from May 4th to August 20th. The test was carried out in vessels having a diameter of 1 metre. The vessels were filled with seawater and the water temperature varied between 8.3 and 11.8° C. in the period. There were 30 fish in each vessel having a mean weight of 0.2 kg at the start. The control group consisted of two vessels per diet, while the test group consisted of one vessel at medium inclusion of ferulic acid and two vessels per diet at low inclusion of ferulic acid.\nThe feed had the following main component composition: 44.5% protein; 28.2% fat; 7.6% water and 7.2% ash.\nThe test feed had the same composition as shown in table 2 and had in addition added ferulic acid as dry powder in meal mix before extrusion. Ferulic acid was added at two levels: low and medium, where the levels are defined as in example 1.\nEach feed was formulated with two levels of astaxanthin, 20 and 40 mg/kg.\nAt the termination of the test the fish weighed 0.7 kg as an average. […] The fish were filleted and the fillet analysed for astaxanthin. Thirty fish per vessel were analysed individually with NIR."}, "sea bream": {"test_system": "sea bream", "settings": "cited from earlier work"}, "salmon (S. salar) [4]": {"test_system": "salmon (S. salar)", "experiment": "Feeding test with gallic acid in astaxanthin feed, retention of astaxanthin in fish muscle (Example 1)", "assay_type": "in vivo, Salmo salar", "settings": "for retention of astaxanthin in fish muscle: 5.5 months", "method": "The test was carried out on salmon (S. salar) over a 5.5-month period between November 11 and May 5. The test was carried out in vessels having a diameter of 1 metre. The vessels were filled with seawater and the water temperature varied between 8 and 12° C. in the period. There were 34-35 fish in each vessel. Mean weight at start was 118 g. The control group consisted of three vessels, while each test group consisted of one vessel.\nThe feeds had the following main component composition: 43.5% protein; 27.7% fat; 7.8% water and 8.0% ash.\nThere was produced feed having three different levels of astaxanthin, 15, 30 and 45 mg astaxanthin/kg respectively, both of the control feeds and the test feeds, by that different amounts of Carophyll Pink were added to the meal mixture before extrusion.\nAdding gallic acid into the meal mix to the same recipe as the control feeds provided the test feeds. Gallic acid was added in four levels to the test feeds, low, medium, high and very high, respectively. Low level corresponds to an inclusion level of between 10 and 75 ppm, represented in the examples with an inclusion level of 15 ppm, medium level corresponds to an inclusion level of between 76 and 750 ppm, represented in the examples with an inclusion level of 400 ppm, high level corresponds to an inclusion level of between 751 and 1500 ppm, represented in the example with an inclusion level of 1200 ppm, and very high level corresponds to an inclusion level of over 1500 ppm, represented in the example with an inclusion level of 3600 ppm.\nAt the termination of the test the fish weighed in average 557 g. SGR was between 0.84%/d and 0.89%/d. The fish were filleted and the fillets were analysed for chemical astaxanthin in duplicates of pooled samples of fillets. Astaxanthin was analysed with HPLC according to a method developed by Roche with modifications."}}, "note": "Like-named read-outs stand apart in the source and are kept apart here.", "data": [{"smiles": "CC1=C(/C=C/C(C)=C/C=C/C(C)=C/C=C/C=C(C)/C=C/C=C(C)/C=C/C2=C(C)C(=O)C(O)CC2(C)C)C(C)(C)CC(O)C1=O", "note": "(stereo not drawn) [astaxanthin, 3,3′-dihydroxy β,β-carotene-4,4′-dion]", "values": [{"measurement": "chemical content of astaxanthin in the muscle at the end of the experiment", "setting": "rainbow trout [1]", "value": 6.57, "unit": "ppm"}, {"measurement": "share of added astaxanthin in the feed deposited in the fish meat", "setting": "rainbow trout [2]", "value": "up to 15%"}]}, {"smiles": "COc1cc(C=CC(=O)O)ccc1O", "note": "[ferulic acid, 3-(4-hydroxy-3-metoxyphenol)prop-2-enoic acid]", "values": [{"measurement": "effect on the retention of astaxanthin", "setting": "salmon (S. salar) [3]; low level of ferulic acid (15 ppm), feed contained less than 20 ppm of astaxanthin", "value": "favourable effect on the retention of astaxanthin"}, {"measurement": "effect on the retention of astaxanthin", "setting": "salmon (S. salar) [3]; medium level of ferulic acid (400 ppm), feed contained more than 30 ppm of astaxanthin", "value": "favourable effect on the retention of astaxanthin"}, {"measurement": "increase in the level of astaxanthin in fish skin", "setting": "sea bream; 1000 ppm ferulic acid", "value": "mild increase"}, {"measurement": "increase in the level of astaxanthin in fish skin", "setting": "sea bream; only 100 ppm ferulic acid", "value": "no increase"}]}, {"smiles": "O=C(O)c1cc(O)c(O)c(O)c1", "note": "[gallic acid, 3,4,5-hydroxybenzoic acid]", "values": [{"measurement": "retention of astaxanthin versus control", "setting": "salmon (S. salar) [4]; astaxanthin content in the feeds approx. 40 ppm", "value": "little difference in the retention"}, {"measurement": "retention of astaxanthin in fish muscle", "setting": "salmon (S. salar) [4]; high inclusion levels of gallic acid in feed (751-1500 ppm, represented by 1200 ppm)", "value": "hamper the retention of astaxanthin"}, {"measurement": "effect on the retention of astaxanthin", "setting": "salmon (S. salar) [4]; lowest inclusion level of gallic acid (15 ppm) compared with medium level (400 ppm)", "value": "equally good effect on the retention of astaxanthin as a medium level"}, {"measurement": "retention of astaxanthin in fish muscle", "setting": "salmon (S. salar) [4]; very high level of gallic acid in feed (over 1500 ppm, represented by 3600 ppm)", "value": "worse retention than at the other tested levels"}]}]}
